Test results reported in ChEMBL document CHEMBL1124638, “2,4-Diamino-5-benzylpyrimidines and analogues as antibacterial agents. 10. 2,4-Diamino-5-(6-quinolylmethyl)- and -[(tetrahydro-6-quinolyl)methyl]pyrimidine derivatives. Further specificity studies” (J Med Chem, 1989).
≈ marks a conversion by molar mass, not a printed value.

Legend:
Klebsiella aerogenes = assay: Comparative in vitro antibacterial activity with trimethoprim against Enterobacter aerogenes 2200/86; type: functional
Staphylococcus aureus = assay: Comparative in vitro antibacterial activity with trimethoprim against Staphylococcus aureus CN491; type: functional
Citrobacter freundii [1] = assay: Comparative in vitro antibacterial activity with trimethoprim against Citrobacter freundii 2200/77; type: functional
Shigella flexneri = assay: Comparative in vitro antibacterial activity with trimethoprim against Shigella flexneri CN6007; type: functional
Streptococcus agalactiae = assay: Comparative in vitro antibacterial activity with trimethoprim against Streptococcus agalactiae CN1143; type: functional
Dihydrofolate reductase [2] = target: T1, Dihydrofolate reductase (Rattus norvegicus, UniProt Q920D2); assay: Inhibitory activity against dihydrofolate reductase in rat liver; conditions: read-out: I50
T1 sequence (Q920D2 whole entry): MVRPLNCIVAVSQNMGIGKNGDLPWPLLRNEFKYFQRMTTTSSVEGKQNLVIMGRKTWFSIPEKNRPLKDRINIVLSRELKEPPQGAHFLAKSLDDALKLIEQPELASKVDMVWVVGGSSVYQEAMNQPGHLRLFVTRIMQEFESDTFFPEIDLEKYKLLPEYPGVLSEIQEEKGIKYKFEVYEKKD

[3] = Comparative in vitro antibacterial activity with trimethoprim against Salmonella typhi CN512; type: functional, salmonella typhosa
Salmonella typhimurium = assay: Comparative in vitro antibacterial activity with trimethoprim against Salmonella Typhimurium S 8587; type: functional, Salmonella enterica subsp. enterica serovar Typhimurium; conditions: Salmonella enterica
Streptococcus pyogenes = assay: Comparative in vitro antibacterial activity of compound with trimethoprim against Streptococcus pyogenes CN10; type: functional
Enterococcus faecalis = assay: Comparative in vitro antibacterial activity with trimethoprim against Streptococcus faecalis CN478; type: functional
Pasteurella multocida = assay: Comparative in vitro antibacterial activity with trimethoprim against Pasteurella multocida ATCC 6587; type: functional
[4] = system: Bordetella bronchiseptica; assay: Comparative in vitro antibacterial activity with trimethoprim against Bordetella bronchiseptica CN385; type: functional
[5] = system: Mycolicibacterium smegmatis; assay: Comparative in vitro antibacterial activity with trimethoprim against Mycobacterium smegmatis S 3254; type: functional
Proteus mirabilis = assay: Comparative in vitro antibacterial activity with trimethoprim against Proteus mirabilis S2409; type: functional
Klebsiella pneumoniae [6] = assay: Comparative in vitro antibacterial activity with trimethoprim against Klebsiella pneumoniae CN3632; type: functional
Proteus vulgaris = assay: Comparative in vitro antibacterial activity with trimethoprim against Proteus vulgaris CN329; type: functional
Escherichia coli = assay: Comparative in vitro antibacterial activity with trimethoprim against Escherichia coli CN314; type: functional
Vibrio cholerae = assay: Comparative in vitro antibacterial activity with trimethoprim against Vibrio cholerae ATCC 14035; type: functional
Dihydrofolate reductase [7] = target: Dihydrofolate reductase (Neisseria gonorrhoeae, UniProt P04174); assay: Inhibitory activity against Dihydrofolate reductase in Neisseria gonorrhoeae; conditions: read-out: I50
Sequence of Dihydrofolate reductase (Neisseria gonorrhoeae, UniProt P04174) (P04174 whole entry): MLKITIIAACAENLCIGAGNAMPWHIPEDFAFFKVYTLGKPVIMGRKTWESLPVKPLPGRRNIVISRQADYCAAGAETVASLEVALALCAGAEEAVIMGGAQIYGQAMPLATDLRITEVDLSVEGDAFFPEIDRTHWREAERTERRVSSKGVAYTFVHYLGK

Serratia marcescens = assay: Comparative in vitro antibacterial activity with trimethoprim against Serratia marcescens CN2398; type: functional
[8] = Dissociation constant at 20 degree C; type: physicochemical
Citrobacter freundii [9] = assay: Comparative in vitro antibacterial activity of compound with trimethoprim against Citrobacter freundii 2200/77; type: functional
Klebsiella pneumoniae [10] = assay: Comparative in vitro antibacterial activity of compound with trimethoprim against Klebsiella pneumoniae CN3632; type: functional

| SMILES | MIC (Klebsiella aerogenes) | MIC (Staphylococcus aureus) | MIC (Citrobacter freundii [1]) | MIC (Shigella flexneri) | MIC (Streptococcus agalactiae) | IC50 (Dihydrofolate reductase [2]) | MIC [3] | MIC (Salmonella typhimurium) | MIC (Streptococcus pyogenes) | MIC (Enterococcus faecalis) | MIC (Pasteurella multocida) | MIC [4] | MIC [5] | MIC (Proteus mirabilis) | MIC (Klebsiella pneumoniae [6]) | MIC (Proteus vulgaris) | MIC (Escherichia coli) | MIC (Vibrio cholerae) | IC50 (Dihydrofolate reductase [7]) | MIC (Serratia marcescens) | other results |
| --- | --- | --- | --- | --- | --- | --- | --- | --- | --- | --- | --- | --- | --- | --- | --- | --- | --- | --- | --- | --- | --- |
| COc1cc(Cc2cnc(N)nc2N)cc2c1NCC(COC(C)=O)C2 (stereo unspecified) | 30 µg/mL (≈ 83.9 µM) | 10 µg/mL (≈ 28 µM) | 30 µg/mL (≈ 83.9 µM) | 30 µg/mL (≈ 83.9 µM) | 10 µg/mL (≈ 28 µM) | 61 µM | 30 µg/mL (≈ 83.9 µM) | 30 µg/mL (≈ 83.9 µM) | 3 µg/mL (≈ 8.39 µM) | 3 µg/mL (≈ 8.39 µM) | 30 µg/mL (≈ 83.9 µM) | 10 µg/mL (≈ 28 µM) | 30 µg/mL (≈ 83.9 µM) | 30 µg/mL (≈ 83.9 µM) | 100 µg/mL (≈ 280 µM) | 30 µg/mL (≈ 83.9 µM) | 30 µg/mL (≈ 83.9 µM) | 10 µg/mL (≈ 28 µM) | 0.16 µM | > 10 µg/mL |  |
| COc1cc(Cc2cnc(N)nc2N)cc2c1N(CCO)CCC2C (stereo unspecified) | 30 µg/mL (≈ 87.4 µM) | 1 µg/mL (≈ 2.91 µM) | 3 µg/mL (≈ 8.74 µM) | 10 µg/mL (≈ 29.1 µM) | 1 µg/mL (≈ 2.91 µM) | 142 µM | 30 µg/mL (≈ 87.4 µM) | 10 µg/mL (≈ 29.1 µM) | 3 µg/mL (≈ 8.74 µM) | 0.3 µg/mL (≈ 0.874 µM) | 10 µg/mL (≈ 29.1 µM) | 10 µg/mL (≈ 29.1 µM) | 3 µg/mL (≈ 8.74 µM) | 10 µg/mL (≈ 29.1 µM) | 10 µg/mL (≈ 29.1 µM) | 10 µg/mL (≈ 29.1 µM) | 30 µg/mL (≈ 87.4 µM) | 3 µg/mL (≈ 8.74 µM) | 0.61 µM | 10 µg/mL (≈ 29.1 µM) |  |
| COc1cc(Cc2cnc(N)nc2N)cc2c1N(CCOC(C)=O)CCC2C (stereo unspecified) | 30 µg/mL (≈ 77.8 µM) | 3 µg/mL (≈ 7.78 µM) | 10 µg/mL (≈ 25.9 µM) | 30 µg/mL (≈ 77.8 µM) | 1 µg/mL (≈ 2.59 µM) | 190 µM | 30 µg/mL (≈ 77.8 µM) | 30 µg/mL (≈ 77.8 µM) | 10 µg/mL (≈ 25.9 µM) | 1 µg/mL (≈ 2.59 µM) | 10 µg/mL (≈ 25.9 µM) | 3 µg/mL (≈ 7.78 µM) | 3 µg/mL (≈ 7.78 µM) | 30 µg/mL (≈ 77.8 µM) | 10 µg/mL (≈ 25.9 µM) | 10 µg/mL (≈ 25.9 µM) | 30 µg/mL (≈ 77.8 µM) | 10 µg/mL (≈ 25.9 µM) | 0.63 µM | > 10 µg/mL |  |
| COc1cccc2c1N(C)CCC2C (stereo unspecified) |  |  |  |  |  |  |  |  |  |  |  |  |  |  |  |  |  |  |  |  | pKa [8]: 6.51 |
| COCCOc1cc(Cc2cnc(N)nc2N)cc2c1NCCC2 | 100 µg/mL (≈ 304 µM) | 10 µg/mL (≈ 30.4 µM) |  | 100 µg/mL (≈ 304 µM) | 10 µg/mL (≈ 30.4 µM) | 170 µM | 100 µg/mL (≈ 304 µM) | 100 µg/mL (≈ 304 µM) | 3 µg/mL (≈ 9.11 µM) | 3 µg/mL (≈ 9.11 µM) | 30 µg/mL (≈ 91.1 µM) | 30 µg/mL (≈ 91.1 µM) | 3 µg/mL (≈ 9.11 µM) | > 30 µg/mL |  | 100 µg/mL (≈ 304 µM) | 100 µg/mL (≈ 304 µM) | 10 µg/mL (≈ 30.4 µM) | 0.53 µM | > 10 µg/mL | MIC (Citrobacter freundii [9]): 100 µg/mL (≈ 304 µM); MIC (Klebsiella pneumoniae [10]): 100 µg/mL (≈ 304 µM) |
